pEC50, pIC50: −log10 of the molar value.
What was measured:
PI3Kγ (p110 gamma) = molecular target: T1, PI3Kγ (p110 gamma) (Homo sapiens, UniProt P48736); assay: PI3K biochemical enzyme assay (Adapta universal kinase assay), p110 gamma; conditions: for pIC50: Table 2, PI3k biochemical assays, read-out: p120γ IC50
T1 construct: purchased Invitrogen
Experimental: (§1) This example describes a method of obtaining in vitro activity data concerning the effect of compounds of on various PI3K isoforms. The effect of compounds on the kinase activity of Class I PI3Ks was measured at Invitrogen by using the Adapta® universal kinase assay. It was a homogenous, fluorescent based immunoassay for the detection of ADP produced by the kinase reaction. This assay can be divided into two phases: a kinase reaction phase, and an ADP detection phase. In the kinase reaction phase, all components required for the kinase reaction were added to the well, and the reaction was allowed to incubate for 60 minutes. After the reaction, a detection solution consisting of a europium labeled anti-ADP antibody, an Alexa Fluor® 647 labeled ADP tracer, and EDTA (to stop the kinase reaction) was added to the assay well. ADP formed by the kinase reaction (in the absence of an inhibitor) displaced the Alexa Fluor® 647 labeled ADP tracer from the antibody, resulting in a decrease in the TR-FRET signal.
(§2) ADP formation was determined by calculating the emission ratio from the assay well. The emission ratio was calculated by dividing the intensity of the tracer (acceptor) emission by the intensity of the Eu (donor) emission at 615 nm as shown in the equation below.
(§3) The Test Compounds were screened in 1% DMSO (final) in the well. All Substrate/Kinase Mixtures were diluted to a 2× working concentration in the appropriate Kinase Buffer as described below for the individual kinase:
The 2× p110 gamma/PIP2:PS mixture was prepared in 50 mM HEPES pH 7.5, 1 mM EGTA, 3 mM mgCl2. The final […] Kinase Reaction consisted of 3.5-26 ng p110 gamma and 50 μM PIP2:PS in 32.5 mM HEPES pH 7.5, 0.5 mM EGTA, 1.5 mM mgCl2. After the 1 hour Kinase Reaction incubation, 5 μL of Detection Mix was added.
(§4) The Detection mix consisted of EDTA (30 mM), Eu-anti-ADP antibody (30 nM) and ADP tracer. All ATP Solutions were diluted to a 4× working concentration in water and used at the Km apparent concentrations for each individual kinase.

PI3Kδ (p110δ/p85α) = molecular target: T2, PI3Kδ (p110δ/p85α) (Homo sapiens, UniProt O00329); assay: PI3K biochemical enzyme assay (Adapta universal kinase assay), p110 delta/p85 alpha; conditions: for inhibition at 0.1 µM / inhibition at 1 µM / inhibition at 10 µM: read-out: PI3Kδ % inhib; for pIC50: Table 2, PI3k biochemical assays, read-out: p110δ/p85α IC50
T2 construct: purchased Invitrogen
T2 sequence (O00329 whole entry): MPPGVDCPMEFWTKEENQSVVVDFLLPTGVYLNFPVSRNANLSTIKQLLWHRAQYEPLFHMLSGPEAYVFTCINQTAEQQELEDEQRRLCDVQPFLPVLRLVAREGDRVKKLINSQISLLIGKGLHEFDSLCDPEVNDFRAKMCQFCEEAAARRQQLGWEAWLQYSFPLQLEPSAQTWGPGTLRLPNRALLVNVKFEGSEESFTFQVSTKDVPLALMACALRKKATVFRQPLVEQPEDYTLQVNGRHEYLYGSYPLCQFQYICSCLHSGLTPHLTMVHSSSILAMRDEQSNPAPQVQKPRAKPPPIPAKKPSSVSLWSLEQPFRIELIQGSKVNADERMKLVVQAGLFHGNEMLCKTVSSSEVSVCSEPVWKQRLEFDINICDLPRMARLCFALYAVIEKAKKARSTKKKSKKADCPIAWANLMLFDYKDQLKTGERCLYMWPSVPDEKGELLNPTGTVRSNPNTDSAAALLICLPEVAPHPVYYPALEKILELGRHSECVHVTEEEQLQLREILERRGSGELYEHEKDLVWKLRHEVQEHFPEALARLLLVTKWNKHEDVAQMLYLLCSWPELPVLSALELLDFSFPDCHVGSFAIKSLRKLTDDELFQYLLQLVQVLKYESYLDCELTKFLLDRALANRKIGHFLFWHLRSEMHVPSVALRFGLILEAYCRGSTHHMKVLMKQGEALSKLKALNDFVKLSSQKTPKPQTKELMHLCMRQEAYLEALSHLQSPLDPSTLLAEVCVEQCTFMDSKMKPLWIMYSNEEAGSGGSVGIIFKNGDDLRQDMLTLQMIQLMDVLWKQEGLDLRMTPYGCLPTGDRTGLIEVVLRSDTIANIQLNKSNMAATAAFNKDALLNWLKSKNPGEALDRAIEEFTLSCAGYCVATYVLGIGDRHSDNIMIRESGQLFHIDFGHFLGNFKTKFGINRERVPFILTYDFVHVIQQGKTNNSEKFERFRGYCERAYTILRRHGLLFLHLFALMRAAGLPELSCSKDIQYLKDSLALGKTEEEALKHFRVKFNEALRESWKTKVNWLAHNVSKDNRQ
T2 sequence (P27986 whole entry partner): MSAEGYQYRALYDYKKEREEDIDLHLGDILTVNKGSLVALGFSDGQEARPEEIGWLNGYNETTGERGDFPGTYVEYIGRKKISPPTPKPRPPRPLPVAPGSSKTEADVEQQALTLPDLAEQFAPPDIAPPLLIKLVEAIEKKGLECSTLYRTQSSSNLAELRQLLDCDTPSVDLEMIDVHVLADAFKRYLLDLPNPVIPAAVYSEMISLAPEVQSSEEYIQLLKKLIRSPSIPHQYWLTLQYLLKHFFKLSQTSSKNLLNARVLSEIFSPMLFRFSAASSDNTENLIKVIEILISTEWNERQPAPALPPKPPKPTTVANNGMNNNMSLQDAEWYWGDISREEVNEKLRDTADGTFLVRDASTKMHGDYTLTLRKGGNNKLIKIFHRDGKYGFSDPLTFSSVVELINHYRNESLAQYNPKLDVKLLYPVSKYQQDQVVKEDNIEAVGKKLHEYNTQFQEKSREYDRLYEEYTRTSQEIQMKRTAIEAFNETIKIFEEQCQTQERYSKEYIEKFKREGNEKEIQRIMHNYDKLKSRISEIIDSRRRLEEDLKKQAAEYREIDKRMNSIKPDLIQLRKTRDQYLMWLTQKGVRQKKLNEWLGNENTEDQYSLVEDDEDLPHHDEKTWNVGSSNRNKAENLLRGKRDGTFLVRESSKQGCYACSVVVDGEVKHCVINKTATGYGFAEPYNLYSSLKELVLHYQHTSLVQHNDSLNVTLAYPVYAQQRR
Experimental: as §1, §2, §3
(§5) The 2× p110 delta/p85 alpha/PIP2:PS mixture was prepared in 50 mM HEPES pH 7.5, 100 mM NaCl, 0.03% CHAPS, 3 mM mgCl2, 1 mM EGTA. The final 10 μL Kinase Reaction consisted of 0.35-2.6 ng p110 delta/p85 alpha and 50 μM PIP2:PS in 32.5 mM HEPES pH 7.5, 50 mM NaCl, 0.015% CHAPS, 1.5 mM mgCl2, 0.5 mM EGTA. After the 1 hour Kinase Reaction incubation, 50 μL of Detection Mix was added.
as §4

PI3Kα (p110α/p85α) = molecular target: T3, PI3Kα (p110α/p85α) (Homo sapiens, UniProt P42336); assay: PI3K biochemical enzyme assay (Adapta universal kinase assay), p110 alpha/p85 alpha; conditions: for inhibition at 1 µM / inhibition at 10 µM: read-out: PI3Kα % inhib; for pIC50: Table 2, PI3k biochemical assays, read-out: p110α/p85α IC50
T3 construct: purchased Invitrogen
T3 sequence (P42336 whole entry): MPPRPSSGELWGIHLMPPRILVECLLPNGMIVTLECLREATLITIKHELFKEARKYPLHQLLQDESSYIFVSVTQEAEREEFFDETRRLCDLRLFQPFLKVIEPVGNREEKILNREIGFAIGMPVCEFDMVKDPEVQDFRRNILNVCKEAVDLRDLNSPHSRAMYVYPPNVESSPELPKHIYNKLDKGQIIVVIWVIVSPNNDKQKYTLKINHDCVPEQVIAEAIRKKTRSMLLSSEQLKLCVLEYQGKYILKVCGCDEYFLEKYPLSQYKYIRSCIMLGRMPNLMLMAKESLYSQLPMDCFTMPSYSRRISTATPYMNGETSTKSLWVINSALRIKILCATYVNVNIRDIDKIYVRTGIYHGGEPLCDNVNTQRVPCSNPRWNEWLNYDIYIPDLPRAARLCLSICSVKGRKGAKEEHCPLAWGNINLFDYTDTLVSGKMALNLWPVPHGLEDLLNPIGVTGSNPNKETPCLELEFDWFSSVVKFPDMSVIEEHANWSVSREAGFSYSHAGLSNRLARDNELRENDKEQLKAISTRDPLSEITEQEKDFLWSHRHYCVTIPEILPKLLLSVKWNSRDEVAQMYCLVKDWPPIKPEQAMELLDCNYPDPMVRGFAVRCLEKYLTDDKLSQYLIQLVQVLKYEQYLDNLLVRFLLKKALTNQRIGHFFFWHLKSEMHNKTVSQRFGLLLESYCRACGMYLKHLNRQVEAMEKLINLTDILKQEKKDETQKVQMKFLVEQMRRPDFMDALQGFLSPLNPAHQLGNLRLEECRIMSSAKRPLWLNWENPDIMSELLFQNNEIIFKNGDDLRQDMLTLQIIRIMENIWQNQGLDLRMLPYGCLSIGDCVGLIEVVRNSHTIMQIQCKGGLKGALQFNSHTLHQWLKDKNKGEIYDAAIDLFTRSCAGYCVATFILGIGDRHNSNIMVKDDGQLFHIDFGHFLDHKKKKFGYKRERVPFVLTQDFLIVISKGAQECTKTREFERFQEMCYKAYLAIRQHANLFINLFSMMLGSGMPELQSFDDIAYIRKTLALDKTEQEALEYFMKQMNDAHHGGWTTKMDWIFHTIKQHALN
T3 sequence (P27986 whole entry partner): as the sequence (P27986 whole entry partner) above
Experimental: as §1, §2, §3
as §5, with “p110 alpha/p85” for “p110 delta/p85”, “of 0.3-1.5” for “of 0.35-2.6”, “incubation, 5” for “incubation, 50”
as §4

PI3Kα = molecular target: T4, PI3Kα (Mus musculus, UniProt P42337); assay: PI3Kα-dependent cell-based assay: PDGF-BB mediated AKT phosphorylation in Swiss-3T3 cells; conditions: PDGF-BB-induced AKT phosphorylation, Swiss-3T3 fibroblasts
T4 construct: endogenous in cells; host or cells: Swiss-3T3 fibroblasts (ATCC)
T4 sequence (P42337 whole entry): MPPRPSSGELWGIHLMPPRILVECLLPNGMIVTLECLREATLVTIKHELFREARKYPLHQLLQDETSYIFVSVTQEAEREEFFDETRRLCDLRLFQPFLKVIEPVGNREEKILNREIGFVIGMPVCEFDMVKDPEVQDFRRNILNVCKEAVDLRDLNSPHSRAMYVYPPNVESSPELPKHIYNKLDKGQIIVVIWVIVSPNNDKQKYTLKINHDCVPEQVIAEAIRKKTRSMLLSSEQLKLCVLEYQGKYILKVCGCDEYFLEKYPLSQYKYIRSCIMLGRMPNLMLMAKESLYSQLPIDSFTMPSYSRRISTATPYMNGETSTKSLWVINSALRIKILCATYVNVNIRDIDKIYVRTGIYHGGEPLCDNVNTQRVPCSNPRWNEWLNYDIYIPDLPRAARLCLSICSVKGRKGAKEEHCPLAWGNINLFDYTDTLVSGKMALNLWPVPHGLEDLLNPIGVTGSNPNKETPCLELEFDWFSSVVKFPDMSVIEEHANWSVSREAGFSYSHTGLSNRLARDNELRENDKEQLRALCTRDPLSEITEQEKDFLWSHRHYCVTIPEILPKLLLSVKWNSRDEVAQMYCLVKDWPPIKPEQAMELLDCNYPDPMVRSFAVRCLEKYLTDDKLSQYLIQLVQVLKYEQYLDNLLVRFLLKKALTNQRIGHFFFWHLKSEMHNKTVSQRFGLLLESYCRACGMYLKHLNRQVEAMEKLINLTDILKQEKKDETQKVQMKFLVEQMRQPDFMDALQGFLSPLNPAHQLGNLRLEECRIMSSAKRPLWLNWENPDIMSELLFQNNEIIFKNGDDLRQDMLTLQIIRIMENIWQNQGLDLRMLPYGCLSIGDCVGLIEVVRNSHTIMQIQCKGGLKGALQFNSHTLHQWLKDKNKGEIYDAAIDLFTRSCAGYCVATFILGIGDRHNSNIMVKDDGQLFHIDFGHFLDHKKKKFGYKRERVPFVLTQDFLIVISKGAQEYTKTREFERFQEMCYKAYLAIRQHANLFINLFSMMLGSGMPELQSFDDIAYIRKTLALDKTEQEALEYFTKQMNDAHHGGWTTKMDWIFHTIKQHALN
T4 sequence (P26450 whole entry partner): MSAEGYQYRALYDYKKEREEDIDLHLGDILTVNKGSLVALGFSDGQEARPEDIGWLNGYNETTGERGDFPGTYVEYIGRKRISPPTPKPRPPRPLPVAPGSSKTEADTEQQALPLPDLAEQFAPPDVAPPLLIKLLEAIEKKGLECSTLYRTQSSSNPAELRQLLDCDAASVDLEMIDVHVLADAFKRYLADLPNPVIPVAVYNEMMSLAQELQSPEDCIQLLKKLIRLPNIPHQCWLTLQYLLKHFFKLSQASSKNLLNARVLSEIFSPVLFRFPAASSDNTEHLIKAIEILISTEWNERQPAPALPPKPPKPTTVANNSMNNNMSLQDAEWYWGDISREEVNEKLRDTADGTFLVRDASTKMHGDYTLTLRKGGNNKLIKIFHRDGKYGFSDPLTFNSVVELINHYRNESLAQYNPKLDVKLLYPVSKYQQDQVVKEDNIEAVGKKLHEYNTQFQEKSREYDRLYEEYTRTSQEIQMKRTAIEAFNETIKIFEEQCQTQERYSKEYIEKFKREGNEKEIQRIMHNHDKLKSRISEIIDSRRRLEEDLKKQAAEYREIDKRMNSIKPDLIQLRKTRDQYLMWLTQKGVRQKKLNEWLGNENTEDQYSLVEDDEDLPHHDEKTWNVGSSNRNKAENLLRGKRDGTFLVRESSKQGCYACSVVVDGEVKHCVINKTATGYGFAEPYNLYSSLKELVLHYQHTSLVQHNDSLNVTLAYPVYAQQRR
Experimental: PDGF-BB-induced AKT phosphorylation in Swiss-3T3 fibroblasts is mediated by p110α. C5a-induced AKT phosphorylation in RAW-264 murine macrophages is mediated exclusively by p110γ.
PI3Kα-Dependent Cell-Based Assay: PDGF-BB Mediated AKT Phosphorylation in Swiss-3T3 Cells
Swiss-3T3 fibroblasts (American Type Culture Collection) were cultured with DMEM containing 10% fetal bovine serum and the antibiotics penicillin and streptomycin. Cells were seeded on a 96-well Tissue Culture Plate at 25,000 cells/well and allowed to reach at least 90% confluency. The cells were starved for 2 to 12 hr in 0.1% FBS containing medium and then were pretreated with inhibitors or DMSO for 2 hr. The cells were stimulated for 15 min with 10 ng/ml PDGF-BB (Cell Signaling Technology) at 37° C. in 5% CO2. The culture medium was removed and cells were fixed for 20 min at room temperature by addition of 100 μl of 4% cell fixing buffer to each well. AKT phosphorylation and total AKT was detected by ELISA.
Detection of Phospho-Ser-473 AKT and Total AKT by ELISA
The fixed cells were washed twice with 150 μl of wash buffer (WB) and quenched by incubating with 100 μl of Quenching Buffer for 20 min at room temperature. Cells were washed once with 150 μl WB and blocked by incubating with 100 μl of Blocking Buffer for 1 hr at room temperature. Cells were incubated with 50 μl of primary antibody diluted in Blocking Buffer, either phospho-Ser-473 AKT specific (1:150 dilution) or total-AKT antibody (1:200 dilution), to each specific well. The negative control wells contained 50 μl of Blocking Buffer. Plates were sealed with plate sealing film and incubated overnight at 4° C. Cells were washed twice with 150 μl WB followed by addition of 50 μl per well of DELFIA secondary antibody (50 ng/well, diluted in DELFIA Assay Buffer). After 2 hr incubation at room temperature, cells were washed 4 times with 150 μl of Europium Wash Solution followed by addition of 100 μl of DELFIA Enhancing Solution to each well. Plates were incubated for 5 min in the dark and fluorescent signal was read using SpectraMax M5™ (Molecular Devices). Total AKT level was determined to verify equal cell number per well. The average background fluorescence values from wells that received vehicle control in the absence of PDGF-BB or C5a were subtracted from all the values of experimental conditions. Fluorescence values corresponding to phosphorylated AKT from wells that received PDGF-BB or C5a were normalized to 100% and compound effect was plotted as % change relative to the vehicle control.

SMILES | inhibition at 1 µM (PI3Kγ (p110 gamma); read-out: PI3Kγ % inhib) | inhibition at 10 µM (PI3Kγ (p110 gamma); read-out: PI3Kγ % inhib) | pIC50 (PI3Kγ (p110 gamma)) | inhibition at 0.1 µM (PI3Kδ (p110δ/p85α)) | inhibition at 1 µM (PI3Kδ (p110δ/p85α)) | inhibition at 10 µM (PI3Kδ (p110δ/p85α)) | pIC50 (PI3Kδ (p110δ/p85α)) | inhibition at 1 µM (PI3Kα (p110α/p85α)) | inhibition at 10 µM (PI3Kα (p110α/p85α)) | pIC50 (PI3Kα (p110α/p85α)) | pEC50 (PI3Kα) | inhibition at 0.1 µM (PI3Kγ (p110 gamma); 0.1 μM, read-out: PI3Kγ % inhib)
CC(Nc1ncnc2[nH]cnc12)c1nc2ccccc2nc1-c1ccccc1 (stereo not shown) [Compound Q1] | 78% | 99% | 6.83 | 74% | 85% | 100% | 7.85 | 18% | 89% | 5.16 | < 4.70 | –
CC(Nc1ncnc2[nH]cnc12)c1nc2ccccc2nc1-c1cc(F)cc(F)c1 (stereo not shown) [Compound Q2, N-{1-[3-(3,5-difluorophenyl)quinoxalin-2-yl]ethyl}-9H-purin-6-amine] | 42% | 86% | 5.24 | 20% | 82% | 100% | 7.24 | – | 47% | < 5.00 | < 4.70 | –
Cc1cccc(-c2nc3ccccc3nc2C(C)Nc2ncnc3[nH]cnc23)c1 (stereo not shown) [Compound Q3] | 51% | 94% | 5.68 | 48% | 86% | 100% | 7.44 | – | 65% | < 5.00 | < 4.70 | –
Cc1cccc2nc(C(C)Nc3nc(N)nc4[nH]cnc34)c(-c3ccccc3)nc12 (stereo not shown) [Compound Q4] | 84% | 99% | 8.10 | 77% | 86% | 100% | 8.70 | 18% | 92% | 5.59 | 4.75 | 36%
Cc1cccc2nc(C(C)Nc3nc(N)nc4[nH]cnc34)c(-c3ccc(F)cc3)nc12 (stereo not shown) [Compound Q5] | 79% | 98% | 8.70 | – | 69% | 99% | 8.70 | 41% | 97% | 6.39 | 4.84 | –
CCC(Nc1ncnc2[nH]cnc12)c1nc2cccc(F)c2nc1-c1ccccc1 (stereo not shown) [Compound Q9] | 37% | 95% | 5.67 | 72% | 86% | 100% | 7.43 | – | 72% | < 5.00 | < 4.70 | –
CCC(Nc1ncnc2[nH]cnc12)c1nc2ccccc2nc1-c1ccccc1 (stereo not shown) [Compound Q12] | 44% | 96% | 6.12 | 71% | 83% | 100% | 7.77 | – | 77% | < 5.00 | < 4.70 | –
